From patent US9321718B2 (CHROMA THERAPEUTICS LTD., priority 2010, dated 2016) come the findings set out here.

The test system of assay [1] is TNFα release from LPS stimulated THP-1 (hCE-1 +ve) cells. Put plainly: LPS-stimulation of THP-1 cells (TNF-α release). Type of assay: cell-based, human. The conditions noted are these: Homo sapiens, THP-1; IC50 range; TNF-α after LPS 1 μg/ml, 6 hours; read-out: THP-1 Assay. The protocol: THP-1 cells are plated in […] at a density of 4×10^4 cells/well in V-bottomed 96 well tissue culture treated plates and incubated at 37° C. in 5% CO2 for 16 hours. 2 Hours after the addition of the inhibitor in 100 μl of tissue culture media, the cells are stimulated with LPS (E. Coli strain 005:B5, Sigma) at a final concentration of 1 μg/ml and incubated at 37° C. in 5% CO2 for 6 hours. TNF-α levels are measured from cell-free supernatants by sandwich ELISA (R&D Systems #QTA00B).

The target of assay [2] is T1, human recombinant his-tagged HSP90α (Homo sapiens, UniProt P07900).
T1 construct: purchased Prospec Technogene #HSP90
Put plainly: HSP90 enzyme assay (HTRF, competition with biotinylated Geldanamycin). The conditions noted are these: IC50 range; read-out: Enzyme Assay. Type of assay: binding. The method, boiled down: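 HTRF competition: compounds (5000 to 0.3 nM, 0.5% DMSO) displace 40 nM biotinylated geldanamycin from 40 nM his-tagged HSP90α. Binding was read via Eu-cryptate anti-his/streptavidin-XL FRET after 20 h at room temperature in Hepes pH 7.3 buffer. IC50 was fitted against controls.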
In general terms: In TR-FRET formats the signal depends on donor and acceptor labels being close together.

Assay [3] relates to TNF-α levels in LPS-stimulated human whole blood. The assay is described as follows: LPS-stimulation of human whole blood (TNF-α levels). Type of assay: cell-based. The conditions noted are these: Homo sapiens; IC50 range; TNF-α after LPS 100 ng/ml, 6 hours. As for the experimental part:
Whole blood is taken by venous puncture using heparinised vacutainers (Becton Dickinson) and diluted in an equal volume of RPMI1640 tissue culture media (Sigma). 100 μl is then plated in V-bottomed 96 well tissue culture treated plates. 2 Hours after the addition of the inhibitor in 100 μl of RPMI1640 media, the blood is stimulated with LPS (E. Coli strain 005:B5, Sigma) at a final concentration of 100 ng/ml and incubated at 37° C. in 5% CO2 for 6 hours. TNF-α levels are measured from cell-free supernatants by sandwich ELISA (R&D Systems #QTA00B).

As to `CC(C)c1cc(C(=O)N2CCC(CN[C@@H](COC(C)(C)C)C(=O)OC3CCCC3)CC2)c(O)cc1O` [Example 34, cyclopentyl O-tert-butyl-N-[(1-{[2,4-dihydroxy-5-(propan-2-yl)phenyl]carbonyl}piperidin-4-yl)methyl]-L-serinate], the IC50 in assay [1] is 100 to 1000 nM; in assay [2] it was under 100 nM; in assay [3], 100 to 1000 nM.

With `CC(C)c1cc(C(=O)N2CCC(CN[C@H](C(=O)OC3CCCC3)c3ccccc3)CC2)c(O)cc1O` [Example 36, cyclopentyl (2S)-{[(1-{[2,4-dihydroxy-5-(propan-2-yl)phenyl]carbonyl}piperidin-4-yl)methyl]amino}(phenyl)ethanoate], the IC50 in assay [1] is 100 to 1000 nM; in assay [2], under 100 nM; in assay [3] it was 100 to 1000 nM.

For the molecule `CC(C)C[C@H](NCCC1CCN(C(=O)c2cc(C(C)C)c(O)cc2O)CC1)C(=O)OC1CCCC1` [Example 38, cyclopentyl N-[2-(1-{[2,4-dihydroxy-5-(propan-2-yl)phenyl]carbonyl}piperidin-4-yl)ethyl]-L-leucinate], the IC50 in assay [1] was 100 to 1000 nM; in assay [2], under 100 nM; in assay [3], 100 to 1000 nM.

In the case of `CC(C)c1cc(C(=O)N2CCC(CCN[C@@H](Cc3ccccc3)C(=O)OC3CCCC3)CC2)c(O)cc1O` [Example 40, cyclopentyl N-[2-(1-{[2,4-dihydroxy-5-(propan-2-yl)phenyl]carbonyl}piperidin-4-yl)ethyl]-L-phenylalaninate], the IC50 was 100 to 1000 nM in assay [1], over 1000 nM in assay [2] and over 1000 nM in assay [3].

For `CC(C)c1cc(C(=O)N2CCC(CCNC(C)(C)C(=O)OC3CCCC3)CC2)c(O)cc1O` [Example 44, cyclopentyl N-[2-(1-{[2,4-dihydroxy-5-(propan-2-yl)phenyl]carbonyl}piperidin-4-yl)ethyl]-2-methylalaninate], the IC50 in assay [1] was under 100 nM; in assay [2], under 100 nM; in assay [3], 100 to 1000 nM.

As to `CC(C)c1cc(C(=O)N2CCC(CCN[C@@H](COC(C)(C)C)C(=O)OC3CCCC3)CC2)c(O)cc1O` [Example 45, cyclopentyl O-tert-butyl-N-[2-(1-{[2,4-dihydroxy-5-(propan-2-yl)phenyl]carbonyl}piperidin-4-yl)ethyl]-L-serinate], the IC50 was 100 to 1000 nM in assay [1], under 100 nM in assay [2] and 100 to 1000 nM in assay [3].

Take `CC(C)C[C@H](NCc1ccc2c(c1)CN(C(=O)c1cc(C(C)C)c(O)cc1O)C2)C(=O)OC1CCCC1` [Example 54, cyclopentyl N-[(2-{[2,4-dihydroxy-5-(propan-2-yl)phenyl]carbonyl}-2,3-dihydro-1H-isoindol-5-yl)methyl]-L-leucinate]: the IC50 in assay [1] was 100 to 1000 nM; in assay [2], under 100 nM; in assay [3], 100 to 1000 nM.

Consider `CC(C)c1cc(C(=O)N2Cc3ccc(CNC(C)(C)C(=O)OC4CCCC4)cc3C2)c(O)cc1O` [Example 55, cyclopentyl N-[(2-{[2,4-dihydroxy-5-(propan-2-yl)phenyl]carbonyl}-2,3-dihydro-1H-isoindol-5-yl)methyl]-2-methylalaninate], for which the IC50 was 100 to 1000 nM in assay [1], under 100 nM in assay [2] and 100 to 1000 nM in assay [3].

Turning to `CC(C)c1cc(C(=O)N2Cc3ccc(CN[C@@H](C)C(=O)OC(C)(C)C)cc3C2)c(O)cc1O` [Example 56, tert-butyl N-[(2-{[2,4-dihydroxy-5-(propan-2-yl)phenyl]carbonyl}-2,3-dihydro-1H-isoindol-5-yl)methyl]-L-alaninate], the values for the IC50 in assay [1], in assay [2] and in assay [3] were over 1000 nM, 100 to 1000 nM and over 1000 nM, respectively.

With `CC(C)c1cc(C(=O)N2Cc3ccc(CN[C@@H](C)C(=O)OC4CCCC4)cc3C2)c(O)cc1O` [Example 59, cyclopentyl N-[(2-{[2,4-dihydroxy-5-(propan-2-yl)phenyl]carbonyl}-2,3-dihydro-1H-isoindol-5-yl)methyl]-L-alaninate], the IC50 in assay [1] is under 100 nM; in assay [2], under 100 nM; in assay [3], 100 to 1000 nM.

`CC(C)c1cc(C(=O)N2Cc3ccc(CNC4(C(=O)OC5CCCC5)CCCC4)cc3C2)c(O)cc1O` [Example 60, cyclopentyl 1-{[(2-{[2,4-dihydroxy-5-(propan-2-yl)phenyl]carbonyl}-2,3-dihydro-1H-isoindol-5-yl)methyl]amino}cyclopentanecarboxylate]: the IC50 in assay [1] is under 100 nM; in assay [2] it was under 100 nM; in assay [3] it was 100 to 1000 nM.

As to `CC(C)C[C@H](NCCc1ccc2c(c1)CN(C(=O)c1cc(C(C)C)c(O)cc1O)C2)C(=O)OC1CCCC1` [Example 61, cyclopentyl N-[2-(2-{[2,4-dihydroxy-5-(propan-2-yl)phenyl]carbonyl}-2,3-dihydro-1H-isoindol-5-yl)ethyl]-L-leucinate], the IC50 is 100 to 1000 nM in assay [1], under 100 nM in assay [2] and 100 to 1000 nM in assay [3].

As for `CC(C)C[C@H](NCCc1ccc2c(c1)CN(C(=O)c1cc(C(C)C)c(O)cc1O)C2)C(=O)OC(C)(C)C` [Example 62, tert-butyl N-[2-(2-{[2,4-dihydroxy-5-(propan-2-yl)phenyl]carbonyl}-2,3-dihydro-1H-isoindol-5-yl)ethyl]-L-leucinate], the IC50 is 100 to 1000 nM in assay [1], under 100 nM in assay [2] and over 1000 nM in assay [3].

In the case of `CC(C)c1cc(C(=O)N2Cc3ccc(CCNC4(C(=O)OC5CCCC5)CCCC4)cc3C2)c(O)cc1O` [Example 63, cyclopentyl 1-{[2-(2-{[2,4-dihydroxy-5-(propan-2-yl)phenyl]carbonyl}-2,3-dihydro-1H-isoindol-5-yl)ethyl]amino}cyclopentanecarboxylate], the IC50 is 100 to 1000 nM in assay [1], under 100 nM in assay [2] and 100 to 1000 nM in assay [3].

With `CC(C)C[C@H](NCCCc1ccc2c(c1)CN(C(=O)c1cc(C(C)C)c(O)cc1O)C2)C(=O)OC1CCCC1` [Example 64, cyclopentyl N-[3-(2-{[2,4-dihydroxy-5-(propan-2-yl)phenyl]carbonyl}-2,3-dihydro-1H-isoindol-5-yl)propyl]-L-leucinate], the IC50 in assay [1] was under 100 nM; in assay [2], under 100 nM; in assay [3], 100 to 1000 nM.

Turning to `CC(C)c1cc(C(=O)N2Cc3ccc(CCCNC4(C(=O)OC5CCCC5)CCCC4)cc3C2)c(O)cc1O` [Example 65, cyclopentyl 1-{[3-(2-{[2,4-dihydroxy-5-(propan-2-yl)phenyl]carbonyl}-2,3-dihydro-1H-isoindol-5-yl)propyl]amino}cyclopentanecarboxylate], the results for the IC50 in assay [1], in assay [2] and in assay [3] were 100 to 1000 nM, under 100 nM and 100 to 1000 nM, respectively.

For `CC(C)C[C@H](NCc1cccc(CN(C)C(=O)c2cc(C(C)C)c(O)cc2O)c1)C(=O)OC1CCCC1` [Example 66, cyclopentyl N-(3-{[{[2,4-dihydroxy-5-(propan-2-yl)phenyl]carbonyl}(methyl)amino]methyl}benzyl)-L-leucinate], the IC50 was 100 to 1000 nM in assay [1], under 100 nM in assay [2] and over 1000 nM in assay [3].

Consider `CC(C)c1cc(C(=O)N(C)Cc2cccc(CNC(C)(C)C(=O)OC3CCCC3)c2)c(O)cc1O` [Example 67, cyclopentyl N-(3-{[{[2,4-dihydroxy-5-(propan-2-yl)phenyl]carbonyl}(methyl)amino]methyl}benzyl)-2-methylalaninate], for which the IC50 is 100 to 1000 nM in assay [1], under 100 nM in assay [2] and 100 to 1000 nM in assay [3].

As to `CC(C)c1cc(C(=O)N(C)Cc2cccc(CNC3(C(=O)OC4CCCC4)CCCC3)c2)c(O)cc1O` [Example 68, cyclopentyl 1-[(3-{[{[2,4-dihydroxy-5-(propan-2-yl)phenyl]carbonyl}(methyl)amino]methyl}benzyl)amino]cyclopentanecarboxylate], the IC50 is 100 to 1000 nM in assay [1], under 100 nM in assay [2] and over 1000 nM in assay [3].

For `CC(C)c1cc(C(=O)N(C)Cc2cccc(CN[C@H](C(=O)OC3CCCC3)c3ccccc3)c2)c(O)cc1O` [Example 69, cyclopentyl (2S)-[(3-{[{[2,4-dihydroxy-5-(propan-2-yl)phenyl]carbonyl}(methyl)amino]methyl}benzyl)amino](phenyl)ethanoate], the IC50 in assay [1] is over 1000 nM; in assay [2] it was 100 to 1000 nM; in assay [3] it was over 1000 nM.

With `CC(C)C[C@H](NCc1ccc(CN(C)C(=O)c2cc(C(C)C)c(O)cc2O)cc1)C(=O)OC1CCCC1` [Example 70, cyclopentyl N-(4-{[{[2,4-dihydroxy-5-(propan-2-yl)phenyl]carbonyl}(methyl)amino]methyl}benzyl)-L-leucinate], the IC50 was 100 to 1000 nM in assay [1], under 100 nM in assay [2] and 100 to 1000 nM in assay [3].
